Experiments:
[1] = tested on: human neuroblastoma SK-N-BE(2)-C cells; assay: Single-cell RNA-seq in neuroblastoma cells; assay type: cell-based; conditions: 1 μM TSA, 25 μM E6R, 16 h
Procedure: Cells were grown in DMEM media supplemented with 10% FBS+PS in a 5% CO2 incubator at 37° C. […] Cells were harvested by incubating them in TryplE for 10 min. Cells were spun down for 5 min at 300 g, and the supernatant was removed. Cells were counted via hemocytometer to 20,000 cells and resuspended in 200 μL of media.
High-throughput scRNA-seq was performed using the Seq-Well S^3 platform as previously described [Gierahn et al 2017, Hughes et al 2020]. Briefly, 20,000 cells were applied to the surface of each Seq-Well array which had been preloaded with uniquely barcoded poly(dT) mRNA capture beads (Chemgenes). Following cell loading, arrays were washed with RPMI and then sealed with a polycarbonate membrane and placed in a 37° C. incubator for 30 min. After membrane sealing, the arrays were submerged in a lysis buffer (5 M guanidine thiocyanate, 10 mM EDTA, 0.1% β-mercaptoethanol, 0.1% Sarkosyl) for 20 min, and subsequently incubated in a 2 M NaCl hybridization buffer for 40 min to promote hybridization of the mRNA to the bead-bound capture oligos. Next, the beads were removed from the arrays, and they were resuspended in a master mix for reverse transcription containing Maxima H Minus Reverse Transcriptase and buffer, dNTPs, RNase inhibitor, a template switch oligonucleotide, and PEG for 30 min at room temperature, and overnight at 52° C. with end-over-end rotation. […] Then, the eluted products were quantified using a Qubit. cDNA libraries were then created using Illumina Nextera XT DNA Library Preparation Kit. Library cleanup was performed using SPRI purification as described above and library concentration and size distribution was determined using a Qubit fluorometer and Agilent TapeStation. Libraries for each sample were sequenced on a NextSeq 500 and a Nextseq 2000 with the following read structures: read 1: 21 bp; read 2: 50 bp; and index 1: 8 bp, and read 1: 26 bp; read 2: 50 bp; and index 1: 8 bp respectively. For each library 21 bases were sequenced in read 1, containing the cell barcode (12 bp) information and a unique molecular identifier (UMII, 8 bp), whereas 50 bases were obtained for the read 2 sequence. After sequencing, reads were demultiplexed using Illumina bcl2fastq (v2.20.0.422) and the resulting FASTQs were concatenated and aligned to the human “GRCh38-2020-A” reference genome using StarSolo alignment pipeline (v2.7.9a) on Terra.
Subsequently, low quality cells were filtered out, including cells with fewer than 200 unique genes, greater than 9,000 unique genes, and greater than 40% mitochondrial reads, resulting in 46,751 cells and 25,468 genes. […] Differentially expressed genes were determined using the FindMarkers function on Seurat with “test.use=MAST” and default parameters. […]

[2] = tested on: CDKN1A, SOCS3, EGR1 in SK-N-BE(2)-C cells; assay: RT-qPCR of SIN3 HDAC complex-regulated genes in neuroblastoma cells; assay type: cell-based, human; conditions: 100 μM for 16 h
Procedure: The RT-qPCR protocol used in this study was described elsewhere [Choi et al 2012]. Culture, RNA extraction, and compound treatments for neuroblastoma SK-N-BE(2)-C cells are described below. Approximately 1 μg RNA per sample was used for reverse transcription. Using a thermocycler, RNA was denatured in the presence of 0.2 μg 18 mer oligo-dT by heating the plate at 65° C. for 10 min. The plate was then immediately cooled down on ice to anneal oligo-dT on the poly-A tail of mRNA. A master mix of AffinityScript Multiple Temperature Reverses Transcriptase (Agilent, cat #600107) was prepared following the manufacturer's protocol, and mixed with RNA samples previously annealed with the oligo-dT. The plate was incubated at 42° C. for 2 h to generate cDNAs from mRNA templates. The reverse transcriptase was then denatured by heating the plate at 70° C. for 15 min. The resulting cDNA was diluted (1:20) in sterile, ultra pure water (ddH2O), and stored at −20° C. until used for qPCR. To measure gene expression, the diluted cDNA was mixed with 5 μL PowerUp SYBR Green master mix (Applied Biosystems, cat #A25743), and the mix of primers (forward+reverse, see FIG. 31; 0.3 μM final concentration) for a total volume of 10 μL. Two technical replicates were generated per cDNA sample in the 384-well PCR plate (Applied Biosystems, cat #4343370). The plate was tightly sealed with optical adhesive film (Applied Biosystems, cat #4311971). Quantitative PCR was conducted with a QuantStudio real-time PCR system from Applied Biosystems, with the following settings: 50° C./2 min, 95° C./10 min, 96° C./15 s/40 cycles, and 60° C./30 s. Dissociation curves were checked for each PCR product, to assess the specificity of the PCR amplicons.
SK-N-BE(2)-C cells were maintained in cell culture flasks supplemented with 10% Fetal bovine serum (FBS) and penicillin/streptomycin (PS) in Dulbecco's Modified Eagle's Medium (DMEM). The cells were maintained at a log phase in a humidified 5% CO2 incubator at 37° C. For testing the effect of the compounds on gene expression, approximately 0.1 million cells were seeded on each well of 24-well cell culture plates, with 1 mL 10% FBS+PS+DMEM. 24 h after seeding the cells, they were exposed to the compounds or DMSO control for 16 h in a humidified 5% CO2 incubator at 37° C., before harvesting them.
Cells were harvested for RNA extraction using Nucleospin 96 RNA (Macherey-Nagel, cat #740709.4) following manufacturer's protocol. Briefly, supernatant was removed, and the cells were gently washed with 1× phosphate-buffered saline. 300 μL lysis buffer were added to each well of 24 well cell culture plates. Roughly 0.1 million cells were used for harvesting each RNA sample. RNA concentration was measured for all purified RNA samples using a nanodrop spectrophotometer.

With C[C@@H](NC(=O)c1c(O)n2ccccc2nc1=O)c1ccccc1 [E6R, 4-hydroxy-2-oxo-N—((R)-1-phenylethyl)-3,4-dihydro-2H-pyrido[, 2-a]pyrimidine-3-carboxamide] the “genes also downregulated by scRNA-seq, among 22 downregulated in bulk RNA-seq” value [1] was 5 genes, the “genes also upregulated in scRNA-seq, among 65 upregulated in bulk RNA-seq” value [1] was 22 genes and the “effect on expression of CDKN1A, SOCS3 and EGR1” value [2] was “only perturbed expression of two of the tested downstream genes”.
With CC(/C=C/C(=O)NO)=C\[C@@H](C)C(=O)c1ccc(N(C)C)cc1 [TSA, trichostatin A] the “genes also downregulated by scRNA-seq, among 22 downregulated in bulk RNA-seq” value [1] was 13 genes, the “genes also upregulated in scRNA-seq, among 65 upregulated in bulk RNA-seq” value [1] was 43 genes and the “effect on expression of CDKN1A, SOCS3 and EGR1” value [2] was “derepressed”.

From patent US20240299393A1, “SMALL MOLECULE DISRUPTORS OF PROTEIN INTERACTIONS IN HISTONE DEACETYLASE COMPLEXES” (Dana-Farber Cancer Institute, Inc., priority 2021, published 2024)
